Patent US10227323B2, “Glucosylceramide synthase inhibitors for the treatment of diseases” (BIOMARIN PHARMACEUTICAL INC., priority 2013, dated 2019)

molecular target: T1, GCS (Canis lupus familiaris, UniProt A0A8I3MXG6); test: Assay 1: GCS Enzymatic Assay (MDCK cell lysate, C6-NBD-Ceramide, LC/MS); format: biochemical, canine; details: Table 2; data marked by *
T1 sequence (A0A8I3MXG6 1-394): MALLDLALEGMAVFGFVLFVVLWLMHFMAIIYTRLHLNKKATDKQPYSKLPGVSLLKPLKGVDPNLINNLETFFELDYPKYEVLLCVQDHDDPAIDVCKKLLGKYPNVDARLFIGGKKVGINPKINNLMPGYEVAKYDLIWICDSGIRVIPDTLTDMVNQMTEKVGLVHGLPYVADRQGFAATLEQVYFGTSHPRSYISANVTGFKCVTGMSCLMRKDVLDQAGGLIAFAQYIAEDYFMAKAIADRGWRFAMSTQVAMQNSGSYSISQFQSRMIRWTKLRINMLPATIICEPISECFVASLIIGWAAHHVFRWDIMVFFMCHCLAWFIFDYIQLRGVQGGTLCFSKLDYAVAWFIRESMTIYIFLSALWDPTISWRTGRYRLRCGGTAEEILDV
Procedure, shortened: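 LC/MS/MS measurement of glucosylceramide and NBD-ceramide after a 1 h, 37 °C reaction with 100 μM UDP-glucose and 10 μM C6-NBD-ceramide gave IC50s or percent inhibition.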

Row | SMILES | % inhibition generated from Assay 1
1 | O=C(CCc1ccc2ccccc2c1)C(=O)N[C@H](CN1CCC1)[C@H](O)c1cc(F)c2c(c1)OCCO2 [Compound 145, N-((1R,2R)-3-(azetidin-1-yl)-1-(8-fluoro-2,3-dihydrobenzo[b][1,4]dioxin-6-yl)-1-hydroxypropan-2-yl)-4-(naphthalen-2-yl)-2-oxobutanamide] | A* (the compound had a % inhibition of a percent inhibition of greater than or equal to about 50%)
2 | O=C(CCc1ccc2ccccc2c1)C(=O)N[C@H](CN1CCCC1)[C@H](O)c1ccc(OC2CC2)c(Cl)c1 [Compound 147, N-((1R,2R)-1-(3-chloro-4-cyclopropoxyphenyl)-1-hydroxy-3-(pyrrolidin-1-yl)propan-2-yl)-4-(naphthalen-2-yl)-2-oxobutanamide] | A* (the compound had a % inhibition of a percent inhibition of greater than or equal to about 50%)
3 | O=C(CCc1ccc2cc(F)ccc2c1)C(=O)N[C@H](CN1CCC1)[C@H](O)c1ccc(OC2CC2)c(Cl)c1 [Compound 154, N-((1R,2R)-3-(azetidin-1-yl)-1-(3-chloro-4-cyclopropoxyphenyl)-1-hydroxypropan-2-yl)-4-(6-fluoronaphthalen-2-yl)-2-oxobutanamide] | B* (the compound had a % inhibition of greater than or equal to about 3% but less than about 50%)

same assay, conditions: Table 2; data without asterisk; read-out: IC50 (nM) generated from Assay 1

Row | IC50 [nM] | SMILES
4 | < 50 | O=C(CCc1ccc2ccccc2c1)C(=O)N[C@H](CN1CCCC1)[C@H](O)c1cc(F)c2c(c1)OCCO2 [Compound 143, N-((1R,2R)-1-(8-fluoro-2,3-dihydrobenzo[b][1,4]dioxin-6-yl)-1-hydroxy-3-(pyrrolidin-1-yl)propan-2-yl)-4-(naphthalen-2-yl)-2-oxobutanamide]
5 | < 50 | O=C(N[C@H](CN1CCC1)[C@H](O)c1ccc2c(c1)OCCO2)C(F)(F)CCc1ccc2ccccc2c1 [Compound 144, N-((1R,2R)-3-(azetidin-1-yl)-1-(2,3-dihydrobenzo[b][1,4]dioxin-6-yl)-1-hydroxypropan-2-yl)-2,2-difluoro-4-(naphthalen-2-yl)butanamide]
6 | < 50 | O=C(N[C@H](CN1CCCC1)[C@H](O)c1ccc(OC2CCOCC2)c(Cl)c1)C(F)(F)c1ccc2cc(Cl)ccc2c1 [Compound 146, N-((1R,2R)-1-(3-chloro-4-((tetrahydro-2H-pyran-4-yl)oxy)phenyl)-1-hydroxy-3-(pyrrolidin-1-yl)propan-2-yl)-2-(6-chloronaphthalen-2-yl)-2,2-difluoroacetamide]
7 | < 50 | O=C(N[C@H](CN1CCCC1)[C@H](O)c1cc(F)c2c(c1)OCCO2)/C(CCc1ccc2ccccc2c1)=N/O [Compound 148, (E)-N-((1R,2R)-1-(8-fluoro-2,3-dihydrobenzo[b][1,4]dioxin-6-yl)-1-hydroxy-3-(pyrrolidin-1-yl)propan-2-yl)-2-(hydroxyimino)-4-(naphthalen-2-yl)butanamide]
8 | < 50 | O=C(N[C@H](CN1CCCC1)[C@H](O)c1ccc(OC2CC2)c(Cl)c1)C(=O)c1ccc(-c2ccc(F)cc2)cc1 [Compound 149, N-((1R,2R)-1-(3-chloro-4-cyclopropoxyphenyl)-1-hydroxy-3-(pyrrolidin-1-yl)propan-2-yl)-2-(4′-fluoro-[1,1′-biphenyl]-4-yl)-2-oxoacetamide]
9 | < 50 | O=C(N[C@H](CN1CCC1)[C@H](O)c1cc(F)c2c(c1)OCCO2)C(=O)c1ccc(-c2ccc(F)cc2)cc1 [Compound 150, N-((1R,2R)-3-(azetidin-1-yl)-1-(8-fluoro-2,3-dihydrobenzo[b][1,4]dioxin-6-yl)-1-hydroxypropan-2-yl)-2-(4′-fluoro-[1,1′-biphenyl]-4-yl)-2-oxoacetamide]
10 | < 50 | O=C(N[C@H](CN1CCCC1)[C@H](O)c1cc(F)c2c(c1)OCCO2)C(=O)c1ccc2cc(Cl)ccc2c1 [Compound 151, 2-(6-chloronaphthalen-2-yl)-N-((1R,2R)-1-(8-fluoro-2,3-dihydrobenzo[b][1,4]dioxin-6-yl)-1-hydroxy-3-(pyrrolidin-1-yl)propan-2-yl)-2-oxoacetamide]
11 | < 50 | O=C(N[C@H](CN1CCCC1)[C@H](O)c1ccc(OC2CCOCC2)c(Cl)c1)C(=O)c1ccc(-c2ccc(F)cc2)cc1 [Compound 152, N-((1R,2R)-1-(3-chloro-4-((tetrahydro-2H-pyran-4-yl)oxy)phenyl)-1-hydroxy-3-(pyrrolidin-1-yl)propan-2-yl)-2-(4′-fluoro-[1,1′-biphenyl]-4-yl)-2-oxoacetamide]
12 | < 50 | O=C(N[C@H](CN1CCCC1)[C@H](O)c1ccc(OC2CC2)c(Cl)c1)/C(=N/O)c1ccc(-c2ccc(F)cc2)cc1 [Compound 153, (E)-N-((1R,2R)-1-(3-chloro-4-cyclopropoxyphenyl)-1-hydroxy-3-(pyrrolidin-1-yl)propan-2-yl)-2-(4′-fluoro-[1,1′-biphenyl]-4-yl)-2-(hydroxyimino)acetamide]
13 | < 50 | O=C(N[C@H](CN1CCC1)[C@H](O)c1cc(F)c2c(c1)OCCO2)/C(=N/O)c1ccc(-c2ccc(F)cc2)cc1 [Compound 155, (E)-N-((1R,2R)-3-(azetidin-1-yl)-1-(8-fluoro-2,3-dihydrobenzo[b][1,4]dioxin-6-yl)-1-hydroxypropan-2-yl)-2-(4′-fluoro-[1,1′-biphenyl]-4-yl)-2-(hydroxyimino)acetamide]
14 | < 50 | O=C(N[C@H](CN1CCCC1)[C@H](O)c1cc(F)c2c(c1)OCCO2)C(=O)c1ccc2ccc(Cl)cc2c1 [Compound 156, 2-(7-chloronaphthalen-2-yl)-N-((1R,2R)-1-(8-fluoro-2,3-dihydrobenzo[b][1,4]dioxin-6-yl)-1-hydroxy-3-(pyrrolidin-1-yl)propan-2-yl)-2-oxoacetamide]
15 | < 50 | O=C(N[C@H](CN1CCC1)[C@H](O)c1cc(F)c2c(c1)OCCO2)C(F)(F)c1ccc(-c2ccc(F)cc2)cc1 [Compound 157, N-((1R,2R)-3-(azetidin-1-yl)-1-(8-fluoro-2,3-dihydrobenzo[b][1,4]dioxin-6-yl)-1-hydroxypropan-2-yl)-2,2-difluoro-2-(4′-fluoro-[1,1′-biphenyl]-4-yl)acetamide]
16 | < 50 | O=C(N[C@H](CN1CCCC1)[C@H](O)c1cc(F)c2c(c1)OCCO2)/C(=N/O)c1ccc2cc(Cl)ccc2c1 [Compound 158, (E)-2-(6-chloronaphthalen-2-yl)-N-((1R,2R)-1-(8-fluoro-2,3-dihydrobenzo[b][1,4]dioxin-6-yl)-1-hydroxy-3-(pyrrolidin-1-yl)propan-2-yl)-2-(hydroxyimino)acetamide]
17 | < 50 | O=C(N[C@H](CN1CCCC1)[C@H](O)c1ccc(OC2CC2)c(Cl)c1)C(F)(F)c1ccc(-c2ccc(F)cc2)cc1 [Compound 159, N-((1R,2R)-1-(3-chloro-4-cyclopropoxyphenyl)-1-hydroxy-3-(pyrrolidin-1-yl)propan-2-yl)-2,2-difluoro-2-(4′-fluoro-[1,1′-biphenyl]-4-yl)acetamide]
18 | < 50 | O=C(N[C@H](CN1CCCC1)[C@H](O)c1ccc2c(c1)OCCO2)C(F)(F)c1ccc(-c2ccc(F)cc2)cc1 [Compound 160, N-((1R,2R)-1-(2,3-dihydrobenzo[b][1,4]dioxin-6-yl)-1-hydroxy-3-(pyrrolidin-1-yl)propan-2-yl)-2,2-difluoro-2-(4′-fluoro-[1,1′-biphenyl]-4-yl)acetamide]
